Assays:
[1] = test system: tumour endothelial cells (activated) and normal endothelial cells (quiescent); test: Selectivity between activated (tumour) and quiescent (normal) endothelial cells; type: cell-based
Source text: An important aspect of the compounds of formulae I, Ia, Ib, II and III is the combination of the specific C-6 and C-7 substituents together with the C-2 Q-group (especially C-2 methyl) which appears to confer greater potency and selectivity when compared to other structurally related TPI compounds. In these compounds selectivity is not simply reliant on the predisposition of tumour vasculature towards collapse when challenged with the VDA but on a capacity of the VDA to distinguish between tumour endothelial cells and normal endothelial cells. Normal endothelial cells, found in healthy tissues, are in a “quiescent” state and tumour endothelial cells are in an “activated” state.

[2] = test system: RENCA renal tumours; test: Vascular shutdown and hypoxia response markers in RENCA renal tumours; type: in vivo
[3] = test system: tumor mass; test: Histological changes caused by BNC105 anti-tumor action (tumor necrosis); type: in vivo; conditions: histology; peripheral regions remain viable
Source text: Based on investigations on the histological changes caused by BNC105 anti-tumor action, it was established that >95% of the tumor mass becomes necrotic, while peripheral regions remain viable. […] Among these is the angiogenesis growth factor VEGF. The present inventors sought to investigate the potential therapeutic benefit of combining BNC105 with an inhibitor of the VEGF/VEGFR2 signalling pathway.

[4] = test system: RENCA (VHL wildtype) orthotopic tumour; test: Tumour growth inhibition by weight of RENCA orthotopic tumour bearing kidneys; type: in vivo, Balb/c mice; conditions: kidneys weighed on Day 10 of treatment; Pazopanib 30 mg/kg p.o. daily, BNC105 16 mg/kg i.v. Days 2 and 9; FIG. 3
Protocol: FIG. 3 Right kidney weight (mg)±SEM of mice bearing RENCA kidney tumours treated with BNC105P, Pazopanib or BNC105P+Pazopanib.
RENCA (VHL wildtype) orthotopic tumour bearing kidneys from Balb/c mice were weighed on Day 10 day of treatment (Pazopanib 30 mg/kg, p.o. Daily, BNC105 16 mg/kg i.v. Days 2 and 9).

[5] = test system: RENCA orthotopic tumour; test: TUNEL assay of necrosis in RENCA orthotopic tumour sections; type: in vivo, Balb/c mice; conditions: 4 hours after dosing BNC105 on Day 9; Bortezomib 0.5 mg/kg iv Days 1, 5, 8; BNC105 32 mg/kg iv Days 2 and 9
Protocol: RENCA orthotopic tumour bearing kidneys from Balb/c mice were photographed 4 hours after dosing BNC105 on Day 9 of treatment (Bortezomib 0.5 mg/kg iv Days 1, 5, 8, BNC105 32 mg/kg iv Days 2 and 9). Formalin fixed and paraffin embedded sections were stained using a TUNEL assay (Roche) to visualize cell necrosis.

[6] = test system: MDA-MB-231 breast carcinoma; test: Tumour hypoxia / disruption of tumour vasculature in MDA-MB-231 tumours; type: in vivo
[7] = test system: Calu-6 lung carcinoma; test: Tumour hypoxia / disruption of tumour vasculature in Calu-6 tumours; type: in vivo
[8] = test system: Colo205 colon carcinoma; test: Tumour hypoxia / disruption of tumour vasculature in Colo205 tumours; type: in vivo
[9] = test system: DU-145 prostate carcinoma; test: Tumour hypoxia / disruption of tumour vasculature in DU-145 tumours; type: in vivo
[10] = test system: RENCA (VHL wildtype) orthotopic tumour; test: Immunohistochemistry of unfolded protein response markers in RENCA orthotopic tumour sections; type: in vivo, Balb/c mice; conditions: 24 hours after a single dose i.v. 32 mg/kg
Source text: (Fast Red detection on hematoxylin)

## COc1cc(C(=O)c2c(C)oc3c(O)c(OC)ccc23)cc(OC)c1OC [BNC105, 2-Methyl-7-hydroxy-3-(3,4,5-trimethoxybenzoyl)-6-methoxybenzofuran]
[1]
  potency against quiescent versus activated endothelial cells (selectivity): show selectivity towards tumor endothelial cells (activated) over normal endothelial cells (quiescent)
[2]
  vascular shutdown: induced vascular shutdown
[2]; induced hypoxia
  CXCL12 and MMP-9 levels: increase in CXCL12 and MMP-9
[2]; on vascular shutdown
  GLUT1, HIF-1a, PERK, eIF2a and VEGF levels: increase GLUT1, HIF-1a, PERK, eIF2a and VEGF
[3]
  tumor mass that becomes necrotic: > 95%
[4]
  tumour growth inhibition: 21%
[5]
  tumor necrosis (TUNEL staining): Very little tumor necrosis

## COc1cc(C(=O)c2c(C)oc3c(OP(=O)([O-])[O-])c(OC)ccc23)cc(OC)c1OC.[Na+].[Na+] [BNC105P, Disodium 6-methoxy-2-methyl-3-(3,4,5-trimethoxybenzoyl)benzofuran-7-yl phosphate]
[6]; MDA-MB-231 breast carcinoma
  tumour hypoxia by disruption of tumour vasculature: increase tumour hypoxia
[6]; MDA-MB-231 tumours
  apoptotic cells: increase in apoptotic cells
  blood vessel integrity: damage of blood vessel integrity
  release of angiogenic growth factor VEGF: release of the angiogenic growth factor VEGF
  tumour endothelial cells: destruction of tumour endothelial cells
[7]
  tumour hypoxia by disruption of tumour vasculature: increase tumour hypoxia
[8]
  tumour hypoxia by disruption of tumour vasculature: increase tumour hypoxia
[9]
  tumour hypoxia by disruption of tumour vasculature: increase tumour hypoxia
[10]
  unfolded protein response markers PERK and phosphorylation of eIF2α: upregulation of unfolded protein response markers

## CC(C)C[C@H](NC(=O)[C@H](Cc1ccccc1)NC(=O)c1cnccn1)B(O)O [Bortezomib, reference compound]
[5]
  tumor necrosis (TUNEL staining): Very little tumor necrosis

## COc1ccc(/C=C\c2cc(OC)c(OC)c(OC)c2)cc1O [Combretastatin A4 (CA4), Combretastatin A4, reference compound]
[1]
  potency against quiescent versus activated endothelial cells (selectivity): equally potent against quiescent and activated endothelial cells

## Cc1ccc(Nc2nccc(N(C)c3ccc4c(C)n(C)nc4c3)n2)cc1S(N)(=O)=O [Pazopanib, reference compound]
[4]
  tumour growth inhibition: 19%
